One series relates to MV4-11 cells. Put plainly: MV4-11-Luc proliferation assay. Conditions: Homo sapiens, MV4-11, read-out: Inhibition Potency MV4-11-Luc Assay.
The subject of a further series is CDK8/19. Put plainly: NFκB Activity Assay (NFκB luciferase reporter, parental 293 cells). Format: cell-based. In general terms: A reporter such as luciferase makes a cellular process visible.
A further series is described as follows: in vivo. Conditions: female, CD-1, mouse, serum, po.
Series [1] relates to alkaline phosphatase (ALPase) in bone marrow stromal cell line ST2. The conditions noted are these: cited from earlier work; for ALP activity Assay EC200: concentration that enhances ALPase activity to 200% of control, ST2 cells, Saito (2013).
The nature of the next series: Mouse PK, intravenous. Format: in vivo. The conditions noted are these: female FVB mice, i.v. 0.5 mg/kg, mixture; for AUC / C0 / Vd / half-life: mouse, serum, iv. The protocol:
Pharmacokinetics (PK) Assay. To measure mouse pharmacokinetics (PK), thienopyridine derivatives were dissolved in 5% dextrose and administered to female FVB mice at different dosing conditions; blood samples were collected at different time points and compound concentrations in the serum were measured by LC/MS/MS.

The nature of another series: Mouse PK, oral 1 mg/kg. The conditions noted are these: female, FVB, serum, mice, oral (gavage) 1 mg/kg; for bioavailability: read-out: Bioavailability (F %). Format: in vivo.
A short description of series [2]: Oral PK in female CD-1 mice, solution formulation. The conditions noted are these: oral gavage in solution, 30 mg/kg (15u series) or 16/18 mg/kg (15w series).
The test system of series [3] is MYC-CAP-CR cells. Put plainly: Short-term cell proliferation assay, MYC-CAP-CR. Format: cell-based, murine. Conditions: androgen-containing media.
The subject of series [4] is 4T1 murine triple-negative breast cancer. As to the kind of experiment: 4T1 TNBC lung metastasis survival after primary tumor removal. Format: in vivo, mouse. The conditions noted are these: medicated food (350 ppm) plus one oral dose 50 mg/kg after removal of primary tumor.
In series [5] the test system is PSA expression in CRPC cell line C4-2. Put plainly: PSA expression in C4-2 cell culture supernatant. Format: cell-based. The conditions noted are these: C4-2 culture supernatant, 4-day treatment, FBS-supplemented regular media, read-out: IC50, suppression of PSA expression. The source says: CDK8/19 inhibition decreases the expression of certain androgen-receptor (AR) inducible genes including PSA, the most common marker of prostate cancer, and the growth of castration-refractory prostate cancers (CRPC).

Series [6] has as its system MYC-CAP-CR cells. As to the kind of experiment: Long-term clonogenic assay, MYC-CaP-CR. Format: cell-based, murine.
The test system of a further series is MYC-CaP-CR tumors. Put plainly: MYC-CaP-CR subcutaneous tumors in intact FVB male mice. Format: in vivo, mouse. The conditions noted are these: intact (uncastrated) FVB male mice.
In series [7] the test system is NFκB activation in CDK8/19-deficient cells. As to the kind of experiment: NFκB reporter assay in CDK8/19 double-knockout 293 reporter cells. Conditions: CDK8/19 double-knockout reporter cells.
The conditions of series [8]: Saito, 2013; cited from earlier work.
Setting [9] is: read-out: Inhibition Potency HEK293-NFkB-Luc Assay, read-out: Inhibition Potency HEK238-NFkB-Luc Assay.
Setting [10] is: parental 293-derived reporter cell line, read-out: NFκB activity Assay IC50.

Like-named read-outs stand apart in the source and are kept apart here.

Consider `CN(CCCO)C(=O)c1ccc(N2CCCN(c3ccnc4sc(C(N)=O)c(N)c34)CC2)cc1` [compound 6264, 3-amino-4-(4-(4-((3-hydroxypropyl)(methyl)carbamoyl)phenyl)-1,4-diazepan-1-yl)thieno[2,3-b]pyridine-2-carboxamide], for which the values for the IC50 in the series with MV4-11 cells and in the series on CDK8/19 (setting [9]) were 31 nM and 37 nM, respectively. The AUC(0-t) in “in vivo” (25 mg/kg) came to 470 ng·h/mL.

For `CN(C)C(=O)c1ccc(N2CCCN(c3ccnc4oc(C(N)=O)c(N)c34)CC2)cc1` [compound 6318], the IC50 with CDK8/19 (setting [9]) is greater than 1000 nM.

For `COc1ccc(N2CCCN(c3ccnc4sc(C(N)=O)c(N)c34)CC2)cc1` [15q], in [1], the “ALP activity Assay EC200” value is reported as 115.4 nM. For the same compound, the IC50 in the series on CDK8/19 (setting [10]) stood at 43.1 nM.

Take `CN1CCN(Cc2ccc(N3CCCN(c4ccnc5sc(C(N)=O)c(N)c45)CC3)cc2)CC1` [compound 6300, 3-amino-4-(4-(4-((4-methylpiperazin-1-yl)methyl)phenyl)-1,4-diazepan-1-yl)thieno[2,3-b]pyridine-2-carboxamide]: the IC50 with CDK8/19 (setting [9]) came to 4.9 nM. In the series “in vivo” (30 mg/kg), this compound displayed an AUC(0-t) of 210 ng·h/mL.

Consider `CN(C)C(=O)c1ccc(CN2CCCN(c3ccnc4sc(C(N)=O)c(N)c34)CC2)cc1` [compound 6269], for which the IC50 in the series with MV4-11 cells was 683 nM; in the series on CDK8/19 (setting [9]), 1000 nM.

`CNC(=O)c1ccc(N2CCCN(c3ccnc4sc(C(N)=O)c(N)c34)CC2)cc1` [15v]: the IC50 in the series with CDK8/19 (setting [9]) is 23.1 nM. For the same compound, in “Mouse PK, intravenous”, the Elimination rate worked out at 4.33 h⁻¹, the AUC was determined as 61.2 ng·h/mL, the C0 amounted to 234 ng/mL and the Vd stood at 2.14 L/kg. Besides, the half-life in the series “Mouse PK, intravenous” was 9.6 min. Besides, in the series “Mouse PK, oral 1 mg/kg”, the exposure (AUC) is 21.8 ng·h/mL, the highest level (Cmax) was 7.2 ng/mL, the half-life was 72 min and the bioavailability came out at 18%.

As for `[2H]C([2H])(C(=O)N(C)C)c1ccc(N2CCCN(c3ccnc4sc(C(N)=O)c(N)c34)CC2)cc1` [15w_D2, 3-amino-4-(4-(4-(2-(dimethylamino)-2-oxoethyl-1,1-d2)phenyl)-1,4-diazepan-1-yl)thieno[2,3-b]pyridine-2-carboxamide], in [2], the “PK (AUC 0-8 h) versus undeuterated parent” value was “did not improve the PK”. Moreover, the IC50 with CDK8/19 (setting [9]) is 8.8 nM. Moreover, the AUC(0-t) in the series “in vivo” (18 mg/kg) worked out at 380 ng·h/mL.

With `NC(=O)c1sc2nccc(N3CCCN(c4ccc(C(=O)N5CCNCC5)cc4)CC3)c2c1N` [compound 6271], the IC50 turned out to be 79 nM with MV4-11 cells and 233 nM with CDK8/19 (setting [9]).

Turning to `Cc1ccc(N2CCCN(c3ccnc4sc(C(N)=O)c(N)c34)CC2)cc1` [15n], in [1], the “ALP activity Assay EC200” value is recorded as 88.1 nM. Further, the IC50 with CDK8/19 (setting [10]) is 37.8 nM.

On to `NC(=O)c1sc2nccc(N3CCCN(c4ccccc4)CC3)c2c1N` [15k], for which, in the series “Mouse PK, intravenous”, the Elimination rate is 4.59 h⁻¹, the AUC was found to be 40.8 ng·h/mL, the C0 was 168 ng/mL and the Vd was determined as 2.98 L/kg. Moreover, in “Mouse PK, intravenous”, the half-life is 9 min. In addition, in the series “Mouse PK, oral 1 mg/kg”, the AUC is 7.6 ng·h/mL, the half-life is 18 min and the bioavailability is 9%.

Take `CN1CCN(C(=O)c2ccc3cc(CCNc4ncnc5ccc(C#N)cc45)ccc3c2)CC1` [Senexin B, reference compound]: in the series on MYC-CAP-CR cells [3], the MYC-CAP-CR cell growth entry was “little effect”. For the same compound, the “mouse survival of the metastatic disease” value in series [4] was “statistically significant but moderate increase in survival”. Also, in series [5], the IC50 was determined as 255 nM.

Take `CN(C)C(=O)c1ccc(N2CCCN(c3ccnc4[nH]c(C(N)=O)cc34)CC2)cc1` [compound 6284]: the IC50 in the series with CDK8/19 (setting [9]) is greater than 1000 nM.

As for `Cc1cc(N2CCCN(c3ccc(C(=O)N(C)C)cc3)CC2)c2c(N)c(C(N)=O)sc2n1` [compound 6304, 3-amino-4-(4-(4-(dimethylcarbamoyl)phenyl)-1,4-diazepan-1-yl)-6-methylthieno[2,3-b]pyridine-2-carboxamide], in the series on CDK8/19 (setting [9]), the IC50 worked out at 13.6 nM. The same compound registered an AUC(0-t) in the series “in vivo” (16 mg/kg) of 2200 ng·h/mL.

Turning to `NC(=O)c1sc2nccc(N3CCCN(c4ccc(C(=O)NCCCO)cc4)CC3)c2c1N` [compound 6263], the IC50 in the series with MV4-11 cells came out at 83 nM; with CDK8/19 (setting [9]) it was 169 nM.

Take `CN(C)C(=O)c1ccc(N2CCCN(c3ccnc4[nH]c(C(N)=O)c(N)c34)CC2)cc1` [compound 6307]: the IC50 with CDK8/19 (setting [9]) was greater than 1000 nM.

As to `[2H]C([2H])([2H])N(C(=O)Cc1ccc(N2CCCN(c3ccnc4sc(C(N)=O)c(N)c34)CC2)cc1)C([2H])([2H])[2H]` [15w_D6, 3-amino-4-(4-(4-(2-(bis(methyl-d3)amino)-2-oxoethyl)phenyl)-1,4-diazepan-1-yl)thieno[2,3-b]pyridine-2-carboxamide], the “PK (AUC 0-8 h) versus undeuterated parent” value in [2] is “much improved the PK”. In addition, the IC50 in the series with CDK8/19 (setting [9]) stood at 3.8 nM. In “in vivo” (16 mg/kg), this compound came in with an AUC(0-t) of 770 ng·h/mL.

As for `CNC(=O)c1ccc(N2C(=S)N(c3ccc(C#N)c(C(F)(F)F)c3)C(=O)C2(C)C)cc1F` [enzalutamide], the MYC-CaP-CR colony formation result with MYC-CAP-CR cells [6] is “decreased MYC-CaP-CR colony formation”. In addition, the MYC-CAP-CR cell growth result in the series on MYC-CAP-CR cells [3] was “paradoxically stimulated the growth”. For the same compound, in the series with MYC-CaP-CR tumors, the “tumor volume and weight” value is reported as “modest effect”.

Turning to `CN(CCCNC(=O)OC(C)(C)C)C(=O)c1ccc(N2CCCN(c3ccnc4sc(C(N)=O)c(N)c34)CC2)cc1` [compound 6292], the IC50 in the series with CDK8/19 (setting [9]) was 594 nM.

On to `CN(C)C(=O)c1ccc(N2CCCN(c3ccnc4sc(C(N)=O)cc34)CC2)cc1` [compound 6296], for which, in the series with CDK8/19 (setting [9]), the IC50 was greater than 1000 nM.

Take `CN(C)C(=O)Cc1ccc(N2CCCN(c3ccnc4sc(C(N)=O)c(N)c34)CC2)cc1` [15w, 3-amino-4-(4-(4-(2-(dimethylamino)-2-oxoethyl)phenyl)-1,4-diazepan-1-yl)thieno[2,3-b]pyridine-2-carboxamide]: the IC50 in [5] (96 h) stood at 15.7 nM. In addition, the “bone anabolic activity in a cell-based assay” value in [1] (Saito, 2013) was “highest bone anabolic activity”. Besides, the “ALP activity Assay EC200” value in series [1] was 6.6 nM. Besides, the “effect on NFκB activation in CDK8/19-deficient cells” value in series [7] is “no effect”. Also, in the series with CDK8/19 (setting [9]), the IC50 worked out at 4.1 nM. Besides, in [8], the pharmacokinetics result is recorded as “poor pharmacokinetics (PK) with low Cmax”. Besides, in the series “Mouse PK, oral 1 mg/kg”, the AUC amounted to 29.2 ng·h/mL and the half-life was 18 min. The compound also showed an AUC(0-t) in “in vivo” (16 mg/kg) of 400 ng·h/mL.

Regarding `CN(CCCN)C(=O)c1ccc(N2CCCN(c3ccnc4sc(C(N)=O)c(N)c34)CC2)cc1` [compound 6293], in the series on CDK8/19 (setting [9]), the IC50 was found to be 50 nM.

For `CN(C)C(=O)c1ccc(N2CCCN(c3ccnc4sc(C#N)c(N)c34)CC2)cc1` [compound 6298], the IC50 in the series with CDK8/19 (setting [9]) is 379 nM.

Regarding `CN1CCN(C(=O)c2ccc(N3CCCN(c4ccnc5sc(C(N)=O)c(N)c45)CC3)cc2)CC1` [compound 6268], the IC50 is 42 nM in the series with MV4-11 cells and 31 nM in the series on CDK8/19 (setting [9]).

For orientation: AUC(0-t) means exposure summed from dosing to a finite time, without extrapolation to infinity. The low end stands for less exposure, the high end for more exposure. A word on the AUC: it is concentration integrated over time. The term Vd denotes the apparent volume that relates the amount in the body to the concentration in plasma or blood. For orientation: half-life means the time in which the quantity being followed falls by half. As a reminder, the Cmax is the peak of the concentration-time curve. By bioavailability is commonly meant the share of a dose that reaches the circulation, judged against a reference dose that is usually intravenous.
